Columns and labels:
CDK9/cyclin T = CDK9/cyclin T (Homo sapiens, UniProt P50750); assay: radiometric protein kinase assay
CDK5/p25 = biological target: T1, CDK5/p25 (Homo sapiens, UniProt Q00535); assay: radiometric protein kinase assay; type: biochemical; conditions: 15 μmol/L ATP
T1 construct: made in house

CK1δ/ε = assay: radiometric protein kinase assay; type: biochemical, porcine; conditions: 15 μmol/L ATP; read-out: IC50 CK1
DYRK3 = biological target: T2, DYRK3 (Homo sapiens, UniProt O43781); assay: radiometric protein kinase assay; type: biochemical; conditions: 15 μmol/L ATP; read-out: IC50 DYRK 3
T2 sequence (O43781 1-588): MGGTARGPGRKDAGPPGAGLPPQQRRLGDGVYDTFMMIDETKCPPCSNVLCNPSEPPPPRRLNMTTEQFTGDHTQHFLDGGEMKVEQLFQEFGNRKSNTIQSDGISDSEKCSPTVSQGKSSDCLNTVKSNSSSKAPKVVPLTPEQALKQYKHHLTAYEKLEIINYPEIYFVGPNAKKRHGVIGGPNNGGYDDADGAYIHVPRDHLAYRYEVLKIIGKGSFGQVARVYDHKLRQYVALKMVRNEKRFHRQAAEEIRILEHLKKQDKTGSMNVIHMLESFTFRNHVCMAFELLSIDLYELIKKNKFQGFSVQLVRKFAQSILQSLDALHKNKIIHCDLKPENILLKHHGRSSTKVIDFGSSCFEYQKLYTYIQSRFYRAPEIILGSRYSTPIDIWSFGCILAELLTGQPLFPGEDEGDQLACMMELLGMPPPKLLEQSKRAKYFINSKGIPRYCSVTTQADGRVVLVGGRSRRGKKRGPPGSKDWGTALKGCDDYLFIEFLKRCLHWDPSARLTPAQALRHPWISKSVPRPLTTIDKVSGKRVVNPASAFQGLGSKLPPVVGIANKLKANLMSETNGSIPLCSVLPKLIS

UACC-257 = assay: NCI cancer cell line screening; type: cell-based, human
Protocol: Being the most promising compound in terms of CLK1 inhibitory potency and selectivity, KuWal151 (8c) was tested in the National Cancer Institute cancer cell line screening on 57 tumor cell lines of different tissue origin [45]. With only a few exceptions, KuWal151 inhibited the growth of most cell lines in submicromolar concentrations. In Table 2 the cancer cell line inhibition data is listed with the expression rates of SPF45 and CLK1 as indicated in the Expression Atlas database (https://www.ebi.ac.uk/gxa/home). Apparently the cell lines with high levels of CLK1 encoding RNA are inhibited over average. […] However, the available data are not sufficient to construe a clear relationship between the expression levels of the putative target CLK1 and sensitivity of the cell lines against 8c. The same holds true for SPF45, an important substrate of CLK1 involved in splicing which is found to be overexpressed in many cancer cell lines. […] The lack of a straight relationship between CLK1 and/or SPF45 expression levels on the one hand and sensitivity against the CLK1 inhibitor 8c on the other hand may have various reasons, e.g. different uptake rates of the inhibitor by the cells or alternative intracellular targets. […]

CDK1/cyclin B = assay: radiometric protein kinase assay; type: biochemical, starfish; conditions: 15 μmol/L ATP
EKVX = assay: NCI cancer cell line screening; type: cell-based; conditions: Homo sapiens, Non-Small Cell Lung Cancer
Protocol: Being the most promising compound in terms of CLK1 inhibitory potency and selectivity, KuWal151 (8c) was tested in the National Cancer Institute cancer cell line screening on 57 tumor cell lines of different tissue origin [45]. With only a few exceptions, KuWal151 inhibited the growth of most cell lines in submicromolar concentrations. In Table 2 the cancer cell line inhibition data is listed with the expression rates of SPF45 and CLK1 as indicated in the Expression Atlas database (https://www.ebi.ac.uk/gxa/home). Apparently the cell lines with high levels of CLK1 encoding RNA are inhibited over average. […] However, the available data are not sufficient to construe a clear relationship between the expression levels of the putative target CLK1 and sensitivity of the cell lines against 8c. The same holds true for SPF45, an important substrate of CLK1 involved in splicing which is found to be overexpressed in many cancer cell lines. […] The lack of a straight relationship between CLK1 and/or SPF45 expression levels on the one hand and sensitivity against the CLK1 inhibitor 8c on the other hand may have various reasons, e.g. different uptake rates of the inhibitor by the cells or alternative intracellular targets. For verification of the results from the NCI screening, which is based on the in situ fixation of cells followed by staining with the protein-binding dye sulforhodamin B [47, 48], 8c was also tested on two cell lines of the NCI panel (HT-29 and MDA-MB-231) in a crystal violet assay.

[1] = system: MCF-7 breast carcinoma cells; assay: crystal violet proliferation assay; type: cell-based; conditions: Homo sapiens, MCF7, 96 h exposure, duplicate
Protocol: (§1) For experiments with RC-124 cells, microtiter plates had been pretreated in the following way: 30 μL of a sterilized gelatine solution (1.5% (m/V)) were added to each well of flat bottom 96-well plates, the plates were covered with their lids, incubated for 1h at 37°C, the excess solution was removed, the wells were washed with PBS 7.4 pH, and the new cell-culture medium was added.
(§2) The antiproliferative effects were determined according to a routinely used method. In short: a volume of 100 μL of HT-29 cells (2565 cells/mL), MDA-MB-231 cells (4120 cells/mL), MCF-7 cells (4840 cells/mL) or RC-124 cells (1460 cells/mL) was transferred into the wells of 96-well plates (note: for RC-124 pretreated plates were used, see above) and incubated at 37°C/5% CO2 for 72 h (MCF-7, MDA-MB-231, RC-124) or 48 h (HT-29). Stock solutions of 8c in DMSO were prepared and diluted with the respective cell culture medium to graded concentrations (final concentration of […]: 0.1% v/v). […] Results were calculated as the mean values of three independent experiments.

[2] = system: MDA-MB-231 breast cancer cells; assay: crystal violet proliferation assay; type: cell-based; conditions: Homo sapiens, 96 h exposure, triplicate
Protocol: as §1, §2

[3] = system: HT-29 colon carcinoma cells; assay: crystal violet proliferation assay; type: cell-based; conditions: Homo sapiens, 72 h exposure, triplicate
Protocol: as §1, §2

[4] = system: RC-124 healthy human kidney cells; assay: crystal violet proliferation assay; type: cell-based; conditions: 96 h exposure, triplicate
Protocol: as §1, §2

Chain of CDK9/cyclin T (P50750 whole entry): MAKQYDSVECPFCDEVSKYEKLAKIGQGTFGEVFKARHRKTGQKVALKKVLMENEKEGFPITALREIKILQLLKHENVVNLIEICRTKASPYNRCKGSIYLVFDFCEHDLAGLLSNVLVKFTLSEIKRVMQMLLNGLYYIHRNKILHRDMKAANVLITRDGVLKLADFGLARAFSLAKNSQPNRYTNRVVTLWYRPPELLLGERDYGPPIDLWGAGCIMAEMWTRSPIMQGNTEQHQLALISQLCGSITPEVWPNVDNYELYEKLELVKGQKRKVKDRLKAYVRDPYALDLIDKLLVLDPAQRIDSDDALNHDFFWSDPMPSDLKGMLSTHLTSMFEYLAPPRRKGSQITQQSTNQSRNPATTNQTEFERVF
Chain of CDK9/cyclin T (O60563 whole entry partner): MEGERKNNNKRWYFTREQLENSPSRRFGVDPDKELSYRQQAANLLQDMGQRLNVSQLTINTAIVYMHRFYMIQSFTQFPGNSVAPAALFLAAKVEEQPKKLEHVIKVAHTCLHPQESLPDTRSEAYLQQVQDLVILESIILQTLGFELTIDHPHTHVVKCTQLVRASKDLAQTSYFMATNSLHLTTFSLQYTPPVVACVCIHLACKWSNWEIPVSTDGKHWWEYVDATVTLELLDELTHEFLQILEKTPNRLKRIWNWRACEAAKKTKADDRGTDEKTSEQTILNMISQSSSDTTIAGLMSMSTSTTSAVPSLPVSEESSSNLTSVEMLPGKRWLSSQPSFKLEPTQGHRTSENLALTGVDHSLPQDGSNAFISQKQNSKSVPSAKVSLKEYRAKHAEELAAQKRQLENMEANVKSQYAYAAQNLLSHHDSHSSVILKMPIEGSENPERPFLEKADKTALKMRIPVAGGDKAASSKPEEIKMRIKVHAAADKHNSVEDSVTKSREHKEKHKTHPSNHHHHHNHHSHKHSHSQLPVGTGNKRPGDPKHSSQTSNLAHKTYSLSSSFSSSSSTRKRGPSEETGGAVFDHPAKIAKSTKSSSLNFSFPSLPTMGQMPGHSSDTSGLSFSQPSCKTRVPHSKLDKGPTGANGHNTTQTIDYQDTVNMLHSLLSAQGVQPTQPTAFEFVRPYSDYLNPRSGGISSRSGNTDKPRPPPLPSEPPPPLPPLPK
T1 sequence (Q00535 whole entry): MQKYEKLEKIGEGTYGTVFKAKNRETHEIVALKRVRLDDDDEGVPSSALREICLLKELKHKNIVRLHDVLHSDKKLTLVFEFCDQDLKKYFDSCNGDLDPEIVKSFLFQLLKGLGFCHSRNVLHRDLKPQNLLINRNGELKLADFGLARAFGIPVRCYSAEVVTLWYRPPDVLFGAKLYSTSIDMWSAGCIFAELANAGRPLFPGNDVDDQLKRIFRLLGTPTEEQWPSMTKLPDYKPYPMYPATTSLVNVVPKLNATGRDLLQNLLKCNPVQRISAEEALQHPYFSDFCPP
T1 sequence (Q15078 99-307 partner limits assumed): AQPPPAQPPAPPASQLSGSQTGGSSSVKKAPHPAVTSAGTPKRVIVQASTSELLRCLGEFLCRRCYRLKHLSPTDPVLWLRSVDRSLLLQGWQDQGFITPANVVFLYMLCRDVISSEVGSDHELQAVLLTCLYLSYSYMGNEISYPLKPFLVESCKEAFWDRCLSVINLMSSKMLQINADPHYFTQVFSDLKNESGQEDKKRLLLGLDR

With `O=C1NCc2ccc3c(-c4cccc(Cl)c4)c[nH]c3c21` [8c, 3-(3-Chlorophenyl)-6,7-dihydropyrrolo[3,4-g]indol-8(1H)-one] the IC50 (CDK9/cyclin T) was > 10000 nM, the IC50 (CDK5/p25) was > 10000 nM and the IC50 (CK1δ/ε) was > 10000 nM. For the same molecule, the IC50 (DYRK3) was > 10000 nM, the GI50 (UACC-257; Homo sapiens, UACC-257, UACC-257, Melanoma) was > 50000 nM and the GI50 (UACC-257; UACC-257, Melanoma) was > 50100 nM. The IC50 (CDK1/cyclin B) was > 10000 nM, the GI50 (EKVX) was 355 nM and the GI50 [1] was 350 ± 160 nM. The GI50 [2] was 280 ± 50 nM, the GI50 [3] was 120 ± 10 nM and the GI50 [4] was 440 ± 100 nM.

From publication PMC5933782, “Molecular structures of cdc2-like kinases in complex with a new inhibitor chemotype” (PLoS ONE, 2018)
